Among the data in patent US20240409585A1, “MACROCYCLIC IMMUNOMODULATORS” (priority 2021, published 2024) are IC50 values, retold here.

What is called IC50 is the concentration that gives 50% inhibition.

Bridge positions count the residues as written; N and C are the ends. Square brackets hold non-standard residues; d marks the D form. Peptide text beside a SMILES is read from it. * marks the point of attachment. ξ: configuration not given here. Tyr(3-NO2) = N[C@@H](Cc1ccc(O)c([N+](=O)[O-])c1)C(=O)O; Ala(morpholin-4-yl) = N[C@@H](CN1CCOCC1)C(=O)O; Phe(4-COOH) = N[C@@H](Cc1ccc(C(=O)O)cc1)C(=O)O; Bip = N[C@@H](Cc1ccc(-c2ccccc2)cc1)C(=O)O; NMeW = CN[C@@H](Cc1c[nH]c2ccccc12)C(=O)O; Phe(3-CN) = N#Cc1cccc(C[C@H](N)C(=O)O)c1; Phe(3-Me) = Cc1cccc(C[C@H](N)C(=O)O)c1; Val(3-OH) = CC(C)(O)[C@H](N)C(=O)O; 4Pal = N[C@@H](Cc1ccncc1)C(=O)O; Cha = N[C@@H](CC1CCCCC1)C(=O)O; Cit = NC(=O)NCCC[C@H](N)C(=O)O; Thr(3ξ) = CC(O)[C@H](N)C(=O)O; dDab = NCC[C@@H](N)C(=O)O; Carboxymethyl = O=C(O)C*; NMeA = CN[C@@H](C)C(=O)O; Nle = CCCC[C@H](N)C(=O)O; Orn = NCCC[C@H](N)C(=O)O; Dab = NCC[C@H](N)C(=O)O; ξDab = NCCC(N)C(=O)O

The target of the assay is T1, PE-labeled human PD-L1-Ig binding to Jurkat cell line over-expressing human PD-1 (Jurkat-PD-1) (Homo sapiens, UniProt Q15116).
T1 construct: expressed in transfected cells; host or cells: Jurkat
T1 sequence (Q15116 25-288): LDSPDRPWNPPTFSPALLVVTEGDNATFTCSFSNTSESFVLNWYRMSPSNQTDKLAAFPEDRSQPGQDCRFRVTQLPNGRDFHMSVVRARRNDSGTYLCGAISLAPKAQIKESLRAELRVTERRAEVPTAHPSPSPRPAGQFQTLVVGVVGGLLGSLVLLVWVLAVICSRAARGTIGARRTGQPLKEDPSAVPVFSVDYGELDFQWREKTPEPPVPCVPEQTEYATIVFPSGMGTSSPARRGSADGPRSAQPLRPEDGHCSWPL
Put plainly: Jurkat-PD-1 Cell Binding High-Content Screening Assay (CBA): Method 1. Particulars: Jurkat-hPD-1 cells, PE-labeled PD-L1-Ig 20 nM final; read-out: Jurkat HPDL1 PD1 IC50 (uM) (Method 1).
`CC(C)C[C@@H]1NC(=O)[C@H](Cc2c[nH]c3ccccc23)NC(=O)[C@H](CC(=O)O)NC(=O)[C@H](Cc2ccc(O)cc2)NC(=O)[C@H](Cc2ccccc2)NC(=O)CSC[C@@H](C(=O)N[C@@H](C)C(N)=O)NC(=O)[C@H]([C@@H](C)O)NC(=O)[C@H](C(C)C)NC(=O)[C@H](CC(C)C)NC(=O)[C@H](CC(N)=O)NC(=O)[C@@H](CC(C)C)NC(=O)[C@H](C)N(C)C(=O)[C@H](C(C)C)NC(=O)[C@H](Cc2ccc(-c3ccccc3)cc2)NC1=O` [Compound 1467] ({CH2CO}-FYDWL[Bip]V[NMeA][dL]NLVTCA-NH2; thioether N-14): the IC50 stood at 0.02 µM.

Turning to `CCCC[C@@H]1NC(=O)[C@H](CCN)NC(=O)[C@@H](CC(C)C)NC(=O)[C@H](C)N(C)C(=O)[C@H](C(C)C)NC(=O)[C@H](Cc2ccc(-c3ccccc3)cc2)NC(=O)[C@H](C(C)C)NC(=O)[C@H](Cc2c[nH]c3ccccc23)NC(=O)[C@H](CC(=O)O)NC(=O)[C@H](Cc2ccc(O)cc2)NC(=O)[C@H](CC(N)=O)NC(=O)CSC[C@@H](C(=O)N[C@@H](C)C(N)=O)NC(=O)[C@H]([C@@H](C)O)NC(=O)[C@H](C(C)C)NC1=O` [Compound 1295] ({CH2CO}-NYDWV[Bip]V[NMeA][dL][Dab][Nle]VTCA-NH2; thioether N-14), the IC50 came out at 0.02 µM.

As for `CC(C)C[C@@H]1NC(=O)[C@H](CCN)NC(=O)[C@@H](CC(C)C)NC(=O)[C@H](C)N(C)C(=O)[C@H](CCCNC(=N)N)NC(=O)[C@H](Cc2ccc(-c3ccccc3)cc2)NC(=O)[C@H](C(C)C)NC(=O)[C@H](Cc2c[nH]c3ccccc23)NC(=O)[C@H](CC(=O)O)NC(=O)[C@H](Cc2cccc(C#N)c2)NC(=O)[C@H](CC(N)=O)NC(=O)CSC[C@@H](C(=O)N[C@@H](C)C(N)=O)NC(=O)[C@H]([C@@H](C)O)NC(=O)[C@H](C(C)C)NC1=O` [Compound 1308] ({CH2CO}-N[Phe(3-CN)]DWV[Bip]R[NMeA][dL][Dab]LVTCA-NH2; thioether N-14), the IC50 is 0.11 µM. The value for `CC(C)C[C@@H]1NC(=O)[C@H](CCN)NC(=O)[C@@H](CC(C)C)NC(=O)[C@H](C)N(C)C(=O)[C@H](CCCNC(=N)N)NC(=O)[C@H](Cc2ccc(-c3ccccc3)cc2)NC(=O)[C@H](C(C)C)NC(=O)[C@H](Cc2c[nH]c3ccccc23)NC(=O)[C@H](CC(=O)O)NC(=O)[C@H](Cc2ccc(O)c([N+](=O)[O-])c2)NC(=O)[C@H](CC(N)=O)NC(=O)CSC[C@@H](C(=O)N[C@@H](C)C(N)=O)NC(=O)[C@H]([C@@H](C)O)NC(=O)[C@H](C(C)C)NC1=O` [Compound 1160] ({CH2CO}-N[Tyr(3-NO2)]DWV[Bip]R[NMeA][dL][Dab]LVTCA-NH2; thioether N-14) was 0.03 µM.

In the case of `CC(C)C[C@@H]1NC(=O)[C@H](Cc2c[nH]c3ccccc23)NC(=O)[C@H](CC(=O)O)NC(=O)[C@H](Cc2ccc(O)cc2)NC(=O)[C@H](Cc2ccccc2)NC(=O)CSC[C@@H](C(=O)NCC(N)=O)NC(=O)[C@H](CO)NC(=O)[C@H](C(C)C)NC(=O)[C@H](CC(C)C)NC(=O)[C@H](CC(N)=O)NC(=O)[C@H](CCN)NC(=O)[C@H](C)N(C)C(=O)[C@H](C(C)C)NC(=O)[C@H](Cc2ccc(-c3ccccc3)cc2)NC1=O` [Compound 1795] ({CH2CO}-FYDWL[Bip]V[NMeA][Dab]NLVSCG-NH2; thioether N-14), the IC50 turned out to be 0.16 µM. The value for `Cc1cccc(C[C@@H]2NC(=O)[C@H](CC(=O)O)NC(=O)[C@H](Cc3ccc(O)cc3)NC(=O)[C@H](CC(N)=O)NC(=O)CSC[C@@H](C(=O)N[C@@H](CCN)C(N)=O)NC(=O)[C@H]([C@@H](C)O)NC(=O)[C@H](C(C)C)NC(=O)[C@H](CC3CCCCC3)NC(=O)[C@H](CCN)NC(=O)[C@@H](CC(C)C)NC(=O)[C@H](C)N(C)C(=O)[C@H](CCCNC(N)=O)NC(=O)[C@H](Cc3ccc(-c4ccccc4)cc3)NC(=O)[C@H](C(C)(C)O)NC2=O)c1` [Compound 1703] ({CH2CO}-NYD[Phe(3-Me)][Val(3-OH)][Bip][Cit][NMeA][dL][Dab][Cha]VTC[Dab]-NH2; thioether N-14) was 0.02 µM; that for `CC(C)C[C@@H]1NC(=O)[C@H](Cc2c[nH]c3ccccc23)NC(=O)[C@H](CC(=O)O)NC(=O)[C@H](Cc2ccc(O)cc2)NC(=O)[C@H](Cc2ccccc2)NC(=O)CSC[C@@H](C(=O)N[C@@H](C)C(N)=O)NC(=O)[C@H](CO)NC(=O)[C@H](C(C)C)NC(=O)[C@H](CC(C)C)NC(=O)[C@H](CC(N)=O)NC(=O)[C@@H](CCCNC(=N)N)NC(=O)[C@H](C)N(C)C(=O)[C@H](C(C)C)NC(=O)[C@H](Cc2ccc(-c3ccccc3)cc2)NC1=O` [Compound 1804] ({CH2CO}-FYDWL[Bip]V[NMeA][dR]NLVSCA-NH2; thioether N-14) was 0.21 µM. For the compound `CC(C)C[C@@H]1NC(=O)[C@H](CCN)NC(=O)[C@@H](CC(C)C)NC(=O)[C@H](Cc2c[nH]c3ccccc23)N(C)C(=O)[C@H](C(C)C)NC(=O)[C@H](Cc2ccc(-c3ccccc3)cc2)NC(=O)[C@H](C(C)C)NC(=O)[C@H](Cc2c[nH]c3ccccc23)NC(=O)[C@H](CC(=O)O)NC(=O)[C@H](Cc2ccc(O)cc2)NC(=O)[C@H](CC(N)=O)NC(=O)CSC[C@@H](C(=O)N[C@@H](C)C(N)=O)NC(=O)[C@H]([C@@H](C)O)NC(=O)[C@H](C(C)C)NC1=O` [Compound 1368] ({CH2CO}-NYDWV[Bip]V[NMeW][dL][Dab]LVTCA-NH2; thioether N-14), the IC50 is 0.13 µM. With `CC(C)C[C@@H]1NC(=O)[C@H](CCCN)NC(=O)[C@@H](CC(C)C)NC(=O)[C@H](C)N(C)C(=O)[C@H](CCCNC(=N)N)NC(=O)[C@H](Cc2ccc(-c3ccccc3)cc2)NC(=O)[C@H](C(C)C)NC(=O)[C@H](Cc2c[nH]c3ccccc23)NC(=O)[C@H](CC(=O)O)NC(=O)[C@H](Cc2ccc(O)cc2)NC(=O)[C@H](CC(N)=O)NC(=O)CSC[C@@H](C(=O)N[C@@H](CO)C(N)=O)NC(=O)[C@H]([C@@H](C)O)NC(=O)[C@H](C(C)C)NC1=O` [Compound 1177] ({CH2CO}-NYDWV[Bip]R[NMeA][dL][Orn]LVTCS-NH2; thioether N-14), the IC50 amounted to 0.12 µM. `CC(C)C[C@@H]1NC(=O)[C@H](Cc2c[nH]c3ccccc23)NC(=O)[C@H](CC(=O)O)NC(=O)[C@H](Cc2ccc(O)cc2)NC(=O)[C@H](Cc2ccccc2)NC(=O)CSC[C@@H](C(=O)NCC(N)=O)NC(=O)[C@H]([C@@H](C)O)NC(=O)[C@H](C(C)C)NC(=O)[C@H](CC(C)C)NC(=O)[C@H](CCN)NC(=O)[C@@H](CC(C)C)NC(=O)[C@H](C)N(C)C(=O)[C@H](C(C)C)NC(=O)[C@H](Cc2ccc(-c3ccccc3)cc2)NC1=O` [Compound 1469] ({CH2CO}-FYDWL[Bip]V[NMeA][dL][Dab]LVTCG-NH2; thioether N-14): the IC50 was determined as 0.01 µM. The value for `Cc1cccc(C[C@@H]2NC(=O)[C@H](CC(=O)O)NC(=O)[C@H](Cc3ccc(OCC(=O)O)cc3)NC(=O)[C@H](C(C)O)NC(=O)CSC[C@@H](C(N)=O)NC(=O)[C@H](C(C)O)NC(=O)[C@H](C(C)C)NC(=O)[C@H](CC3CCCCC3)NC(=O)[C@H](CCN)NC(=O)[C@@H](CC(C)C)NC(=O)[C@H](C)N(C)C(=O)[C@H](Cc3ccc(OCC(=O)O)cc3)NC(=O)[C@H](Cc3ccc(-c4ccccc4)cc3)NC(=O)[C@H](Cc3ccc(C(=O)O)cc3)NC2=O)c1` (stereo partly drawn) [Compound 2249] ({CH2CO}-[Thr(3ξ)]Y(Carboxymethyl)D[Phe(3-Me)][Phe(4-COOH)][Bip]Y(Carboxymethyl)[NMeA][dL][Dab][Cha]V[Thr(3ξ)]C-NH2; thioether N-14) was 0.08 µM; that for `CC(C)C[C@@H]1NC(=O)[C@H](Cc2c[nH]c3ccccc23)NC(=O)[C@H](CC(=O)O)NC(=O)[C@H](Cc2ccncc2)NC(=O)[C@H](Cc2ccc(OCC(=O)O)cc2)NC(=O)CSC[C@@H](C(=O)N[C@H](CCN)C(N)=O)NC(=O)[C@H]([C@@H](C)O)NC(=O)[C@H](C(C)C)NC(=O)[C@H](CC2CCCCC2)NC(=O)[C@H](CCN)NC(=O)[C@@H](CC(C)C)NC(=O)[C@H](C)N(C)C(=O)[C@H](C(C)C)NC(=O)[C@H](Cc2ccc(-c3ccccc3)cc2)NC1=O` [Compound 1904] ({CH2CO}-Y(Carboxymethyl)[4Pal]DWL[Bip]V[NMeA][dL][Dab][Cha]VTC[dDab]-NH2; thioether N-14) was 0.01 µM. Then `CC[C@H](C)[C@@H]1NC(=O)[C@H](Cc2ccc(-c3ccccc3)cc2)NC(=O)[C@H](C(C)C)NC(=O)[C@H](Cc2c[nH]c3ccccc23)NC(=O)[C@H](CC(=O)O)NC(=O)[C@H](Cc2ccc(O)cc2)NC(=O)[C@H](CC(C)C)NC(=O)CSC[C@@H](C(=O)N[C@@H](C)C(N)=O)NC(=O)[C@H]([C@@H](C)O)NC(=O)[C@H](C(C)C)NC(=O)[C@H](CC(C)C)NC(=O)[C@H](CCN)NC(=O)[C@@H](CC(C)C)NC(=O)[C@H](C)N(C)C1=O` [Compound 1392] ({CH2CO}-LYDWV[Bip]I[NMeA][dL][Dab]LVTCA-NH2; thioether N-14), with 0.04 µM; and `Cc1cccc(C[C@@H]2NC(=O)[C@H](CC(=O)O)NC(=O)[C@H](Cc3ccc(C(=O)O)cc3)NC(=O)[C@H](Cc3ccc(OCC(=O)O)cc3)NC(=O)CSC[C@@H](C(N)=O)NC(=O)[C@H](CO)NC(=O)[C@H](C(C)C)NC(=O)[C@H](CC(C)C)NC(=O)[C@H](CC(N)=O)NC(=O)[C@@H](CC(C)C)NC(=O)[C@H](C)N(C)C(=O)[C@H](CCCNC(N)=O)NC(=O)[C@H](Cc3ccc(-c4ccccc4)cc3)NC(=O)[C@H](CC(C)C)NC2=O)c1` [Compound 1643] ({CH2CO}-Y(Carboxymethyl)[Phe(4-COOH)]D[Phe(3-Me)]L[Bip][Cit][NMeA][dL]NLVSC-NH2; thioether N-14), with 0.08 µM; and `Cc1cccc(C[C@@H]2NC(=O)[C@H](CC(=O)O)NC(=O)[C@H](Cc3ccc(OCC(=O)O)cc3)NC(=O)[C@H](CN3CCOCC3)NC(=O)CSC[C@@H](C(=O)NC(CCN)C(N)=O)NC(=O)[C@H](CCCN)NC(=O)[C@H](C(C)C)NC(=O)[C@H](Cc3ccc(O)cc3)NC(=O)[C@H](CCN)NC(=O)[C@@H](CC(C)C)NC(=O)[C@H](C)N(C)C(=O)[C@H](CCC(N)=O)NC(=O)[C@H](Cc3ccc(-c4ccccc4)cc3)NC(=O)[C@H](Cc3ccc(C(=O)O)cc3)NC2=O)c1` (stereo partly drawn) [Example 2301] ({CH2CO}-[Ala(morpholin-4-yl)]Y(Carboxymethyl)D[Phe(3-Me)][Phe(4-COOH)][Bip]Q[NMeA][dL][Dab]YV[Orn]C[ξDab]-NH2; thioether N-14), with 0.98 µM.
